Results reported in the CheMixHub viscosity set.

Assay: xn = mol fraction of the nth substance listed

COCCOC + CCCCCCCCO
298.15 K, 101 kPa
Conditions	viscosity [mPa·s]
x1 = 0.1384	4.222
x1 = 0.2654	2.824
x1 = 0.3825	1.922
x1 = 0.4907	1.402
x1 = 0.591	1.089
x1 = 0.6843	0.8523
x1 = 0.7713	0.6745
x1 = 0.8525	0.5661
x1 = 0.9286	0.4789

OC[C@H](O)C(O)[C@@H](O)CO + OC[C@@H](O)[C@H](O)[C@@H](O)CO
Conditions	viscosity [mPa·s]
313 K, 101 kPa, x2 = 0.56	42740

COC(C)=O + CCCO
viscosity [mPa·s]
Conditions	298.15 K	313.15 K
101 kPa, x1 = 0.0464	1.587	1.153
101 kPa, x1 = 0.0999	1.295	0.965
101 kPa, x1 = 0.1992	1.001	0.769
101 kPa, x1 = 0.3035	0.794	0.626
101 kPa, x1 = 0.4028	0.654	0.529
101 kPa, x1 = 0.5088	0.555	0.458
101 kPa, x1 = 0.5545	0.52	0.433
101 kPa, x1 = 0.6022	0.49	0.411
101 kPa, x1 = 0.7037	0.439	0.375
101 kPa, x1 = 0.7973	0.401	0.346
101 kPa, x1 = 0.8988	0.39	0.341
101 kPa, x1 = 0.9458	0.379	0.332
101 kPa, x2 = 0.1056	0.375	–
101 kPa, x2 = 0.1987	0.399	–
101 kPa, x2 = 0.298	0.432	–
101 kPa, x2 = 0.3999	0.483	–
101 kPa, x2 = 0.5012	0.55	–
101 kPa, x2 = 0.5963	0.644	–
101 kPa, x2 = 0.6991	0.793	–
101 kPa, x2 = 0.7989	1.014	–
101 kPa, x2 = 0.8845	1.306	–
101.33 kPa, x1 = 0.0504	1.667	–
101.33 kPa, x1 = 0.1935	1.074	–
101.33 kPa, x1 = 0.3023	0.817	–
101.33 kPa, x1 = 0.4167	0.654	–
101.33 kPa, x1 = 0.5497	0.544	–
101.33 kPa, x1 = 0.6021	0.509	–
101.33 kPa, x1 = 0.6703	0.48	–
101.33 kPa, x1 = 0.7809	0.439	–
101.33 kPa, x1 = 0.8648	0.409	–

C1CCCCC1 + Cc1ccccc1
viscosity [mPa·s]
Conditions	101 kPa	101.33 kPa
293.95 K, x1 = 0.1	–	0.6126
294.15 K, x1 = 0.5	–	0.6762
294.25 K, x1 = 0.2	–	0.6123
294.45 K, x1 = 0.3	–	0.6228
294.75 K, x1 = 0.4	–	0.6357
294.75 K, x1 = 0.6	–	0.6922
296.15 K, x1 = 0.8	–	0.778
303 K, x2 = 0.04	0.7881	–
303 K, x2 = 0.081	0.7486	–
303 K, x2 = 0.162	0.6926	–
303 K, x2 = 0.324	0.6161	–
303 K, x2 = 0.484	0.5705	–
303 K, x2 = 0.644	0.5419	–
303 K, x2 = 0.803	0.5252	–
303 K, x2 = 0.882	0.5268	–
303 K, x2 = 0.96	0.5298	–
303.15 K, x1 = 0.0958	0.5395	–
303.15 K, x1 = 0.0999	0.5263	–
303.15 K, x1 = 0.2	0.5319	0.5546
303.15 K, x1 = 0.2959	0.5409	–
303.15 K, x1 = 0.4126	0.5566	–
303.15 K, x1 = 0.4964	0.5726	–
303.15 K, x1 = 0.6005	0.6005	–
303.15 K, x1 = 0.7032	0.6367	–
303.15 K, x1 = 0.7978	0.6827	–
303.15 K, x1 = 0.8946	0.7448	–
303.15 K, x2 = 0.0999	0.7364	–
303.15 K, x2 = 0.2003	0.6714	–
303.15 K, x2 = 0.3	0.6226	–
303.15 K, x2 = 0.3999	0.5886	–
303.15 K, x2 = 0.5	0.5635	–
303.15 K, x2 = 0.6	0.5481	–
303.15 K, x2 = 0.6999	0.5352	–
303.15 K, x2 = 0.7998	0.5283	–
303.15 K, x2 = 0.9	0.5256	–
303.45 K, x1 = 0.1	–	0.5477
303.45 K, x1 = 0.3	–	0.5618
303.45 K, x1 = 0.8	–	0.7003
303.75 K, x1 = 0.5	–	0.5991
303.95 K, x1 = 0.4	–	0.5688
304.25 K, x1 = 0.6	–	0.6143
308.15 K, x2 = 0.0999	0.6829	–
308.15 K, x2 = 0.2003	0.6256	–
308.15 K, x2 = 0.3	0.5822	–
308.15 K, x2 = 0.3999	0.5527	–
308.15 K, x2 = 0.5	0.5308	–
308.15 K, x2 = 0.6	0.5152	–
308.15 K, x2 = 0.6999	0.5054	–
308.15 K, x2 = 0.7998	0.4991	–
308.15 K, x2 = 0.9	0.497	–
312.45 K, x1 = 0.1	–	0.4994
312.45 K, x1 = 0.3	–	0.51
312.95 K, x1 = 0.8	–	0.6059
313.15 K, x1 = 0.2	–	0.4976
313.15 K, x1 = 0.4	–	0.5137
313.15 K, x1 = 0.4974	0.5095	–
313.15 K, x2 = 0.0999	0.6359	–
313.15 K, x2 = 0.2003	0.585	–
313.15 K, x2 = 0.3	0.5466	–
313.15 K, x2 = 0.3999	0.5206	–
313.15 K, x2 = 0.5	0.4996	–
313.15 K, x2 = 0.7998	0.4731	–
313.15 K, x2 = 0.9	0.4707	–
313.45 K, x1 = 0.5	–	0.5412
313.65 K, x1 = 0.6	–	0.5482
318.15 K, x2 = 0.0999	0.5914	–
318.15 K, x2 = 0.2003	0.548	–
318.15 K, x2 = 0.3	0.5136	–
318.15 K, x2 = 0.3999	0.4913	–
318.15 K, x2 = 0.5	0.4722	–
318.15 K, x2 = 0.6	0.4614	–
318.15 K, x2 = 0.6999	0.4531	–
318.15 K, x2 = 0.7998	0.449	–
318.15 K, x2 = 0.9	0.447	–
322.75 K, x1 = 0.8	–	0.5481
323.15 K, x1 = 0.5989	0.4735	–
323.15 K, x2 = 0.0999	0.5534	–
323.15 K, x2 = 0.2003	0.5139	–
323.15 K, x2 = 0.3	0.4839	–
323.15 K, x2 = 0.3999	0.4632	–
323.15 K, x2 = 0.5	0.4466	–
323.15 K, x2 = 0.6	0.4383	–
323.15 K, x2 = 0.6999	0.4304	–
323.15 K, x2 = 0.7998	0.4264	–
323.15 K, x2 = 0.9	0.4243	–
